How the values were obtained:
[1] = test system: A. aegypti mosquitoes; assay: Olfactometer test (repellency from target air stream); assay type: in vivo; details: for mg to reach RD90: dose at which 90% of control population driven from target, 28 x 10 cm filter paper, female mosquitoes; for WEIGHT INDEX: ratio of weight of ingredient versus weight of DEET to achieve RD90, 25° C.
Text: The olfactometer test provides a means for measuring the effect of a volatile active ingredient on flying insects under precisely controlled conditions. Mosquitoes are used as the test insect. In this and the other Examples, below, the mosquitoes were A. aegypti. The olfactometer used for the olfactory tests described below generates two uniform, laminar flow air streams. These air streams consist of a target air stream superimposed upon and centered within a carrier air stream.
The olfactometer provides a square testing surface with an area of 929 cm^2. The testing area consists of a circular target area of 42 cm^2 centered on a square background surface area of 887 cm^2. In the tests described, a 200 ml/min flow of carbon dioxide was introduced into the carrier air stream to activate the mosquitoes. […] The flow rate of the carrier air stream was 300 to 350 liters/min. […] Elevated temperature and humidity at the level described for the target air stream are known to be attractive to mosquitoes. The flow rate of the target air stream was 12 liters/min.
The olfactometer has an air flow duct through which the carrier air flow strewn passes. A glass cylinder having one closed and one open end, an internal diameter of 6 cm and a depth of 14 cm is located within the air flow duct, with the longitudinal axis of the glass cylinder oriented parallel to the direction of flow of the carrier air flow stream, with the open end of the cylinder pointing down stream. The target air stream is generated by releasing a flow of temperature and humidity conditioned air into the glass cylinder near its closed end, from which point the air flows the length of the glass cylinder to exit at its open end.
Active insect control ingredients to be tested are impregnated in a filter paper test substrate (Grade 615 from VWR Scientific Inc.) having a length of 28 cm and a width of 10 cm. The filter paper test substrate is folded into a fluted cylinder and inserted coaxially within the glass cylinder to rest at a location between the point where the air is released into the glass cylinder and the open end of the glass cylinder. By this arrangement, the target air stream is caused to pass over the surface of the filter paper test substrate so that any active insect control ingredient present in the filter paper test substrate may evaporate into the target air stream before the target air stream exits the glass cylinder to continue, embedded within the flow of the carrier air stream.
Cubic test cages having 30.5 cm edges were constructed of four glass panels, with two opposing sides of the cubic test cages being open. One open side was designated the test panel and was covered with an airflow-transmitting, mosquito-retaining mesh. The opposite open side was covered with a closeable sleeve made of a tubular, open-weave, mosquito-retaining fabric well known in the art as “stockinet.” For any given test, the test cage normally contained from 250 to 350 female mosquitoes.
The test cage was placed in the air stream with the test panel facing and perpendicular to the direction of flow of the air streams of the olfactometer. In order to allow the mosquitoes to become activated by the carbon dioxide of the air streams, the test cage first was placed in the olfactometer for an initial 5 minute conditioning exposure. The test cage then was removed from the olfactometer for 3 minutes and then placed back in the olfactometer for a second 5 minute conditioning exposure. The test cage was again removed from the olfactometer for 3 minutes, during which time a control filter paper test substrate was inserted within the glass cylinder of the olfactometer. The test cage was then placed on the olfactometer for a 10 minute control exposure. The same procedure was repeated, using each time a filter paper test substrate impregnated with increasing amounts of active insect control ingredient. […]

[2] = Volatility index calculation (concentration in air from vapor pressure); assay type: physicochemical; details: for CONCENTRATION IN AIR: calculated from vapor pressure by ideal gas equation, 20 to 25° C.; for VOLATILITY INDEX: concentration in the air relative to DEET at 20 to 25° C.
[3] = test system: A. aegypti mosquitoes; assay: Activity index calculation (volatility index x weight index); details: volatility index multiplied by weight index; DEET = 1.00
Procedure: The “activity index” is obtained by the multiplying the volatility index and the weight index. The activity index is an attempt to predict the combined effect of volatility and potency by weight in the usefulness of an insect control active ingredient for insect control of flying insects by passive evaporation. The following activity indices were calculated from the volatility and weight indices given, above: […]

[4] = test system: A. aegypti mosquitoes; assay: Chamber test, first series (box fan), mosquito repellency and knock-down; assay type: in vivo; details: at least 50% repellency within 20 minutes with not more than a gram
Text: (§1) The chamber test protocol was developed to realistically model actual use conditions for the insect control article of the invention. A closed, generally featureless, approximately 28 m^3, box-like test chamber is used, the size of a small room. Six mosquito knock-down cages are distributed vertically within the test chamber, suspended from poles adjacent to opposite test chamber side walls, where they can be observed from outside the test chamber through chamber windows. Mosquitoes in the cages are observed during a test to evaluate the ability of a material being tested to knock down mosquitoes. An insect “knocked down” is one that is incapable of flying and usually is moribund in appearance. The insect may or may not actually be dead. The knock-down cages are cylindrical, approximately 6 cm long and 8 cm in diameter, and have screened but otherwise open ends.
(§2) Two repellency mosquito cages are also provided. The repellency cages are box-like screened cages, approximately 73 cm long and 16 cm square in cross section. All of the walls of the repellency cages are screened but otherwise generally open. Each repellency cage is divided by a clear plastic partition into a first holding area, which occupies approximately 45 cm of the length of the cage, and a second holding area, which occupies the remaining 28 cm. The plastic partition has a 4 cm diameter hole in its center that provides the only route by which mosquitoes may pass between the two holding areas. The repellency cages are mounted in a test chamber wall, with the plastic partition located in the plane of the test chamber wall, and are so oriented that the first holding area projects inwardly, into the test chamber, while the second holding area projects through the test chamber wall, out into normal room air.
(§3) A mouse cage essentially identical to a mosquito knock-down cage is mounted on the end of the first holding chamber of each repellency test cage that faces toward the interior of the test chamber. The mouse cage is separated from the repellency cage only by a mosquito-proof screen. One mouse is placed in the mouse cage during a test to provide an attractant for mosquitoes being held in the repellency test cage. Mosquitoes in the first holding area of a repellency cage thus are attracted toward the mouse, on the one hand, and repelled by the insect control article being tested, on the other hand.
(§4) When a test is run, fifty female mosquitoes are placed in the first holding area of each mosquito cage, with the partition hole closed by a removable door. Ten female mosquitoes are placed in each knock-down cage. The insect control article to be tested is placed centrally within the test chamber and the air flow is initiated. At timed intervals up to a total testing period of two hours, each knock-down cage and each repellency cage is visually examined, and the location, number, and condition of the mosquitoes are noted. The number of mosquitoes that have been driven to the second holding area provides a measure of the repellency of the insect control article being tested. The number of mosquitoes knocked down in the knock-down cages is also recorded. The general success of an insect control article is judged by both the mosquitoes repelled and those knocked down, in that both effects reduce the total number of mosquitoes available for biting.
Two series of tests were run using the chamber test protocol to evaluate the effect of insect control articles made in accordance with the invention. […]

[5] = test system: A. aegypti mosquitoes; assay: Chamber test, second series (small blower, 0.06 m^3 per minute); assay type: in vivo
Text: as §1, §2, §3, §4
In an additional series of tests using the chamber protocol, two insect control active ingredients were tested for their ability to achieve the preferred practical control level, defined above. The experiment of the first series was substantially repeated except that the substrate was a 0.5 cm thick, 4.5 cm diameter coil of common corrugated cardboard, with the channels of the corrugation presented endwardly to the direction of air flow. […]

[6] = 0.5 cm thick, 4.5 cm diameter corrugated cardboard coil, blower 0.06 m^3 per minute, two hour test, NA = not achieved
[7] = 0.072 gm applied directly to the nine blades of the small blower, 0.06 m^3 per minute, two hour testing period

Compound | mg to reach RD90 [1] | WEIGHT INDEX [1] | CONCENTRATION IN AIR [2] | VOLATILITY INDEX [2] | ACTIVITY INDEX [3] | practical insect control as defined (minimum practical control standard) [4] | Minutes to RD50 [5, 6] | KD50 [5, 7] | RD50 [5, 7] | RD90 [5, 7] | Minutes to KD50 [5, 6] | Minutes to RD90 [5, 6]
Cc1c(F)c(F)c(COC(=O)[C@@H]2[C@H](/C=C(\Cl)C(F)(F)F)C2(C)C)c(F)c1F (racemic) [Tefluthrin] | 1.3 milligrams/filter paper test substrate | 0.014 | 1.37 × 10^−5 grams per liter | 0.797 | 0.011 | – | – | – | – | – | – | –
C=CCC1=C(C)C(OC(=O)C2C(C=C(C)C)C2(C)C)CC1=O (stereo not drawn) [Allethrin (90% active), Allethrin] | 8.0 milligrams/filter paper test substrate | 0.085 | 1.92 × 10^−6 grams per liter | 0.112 | 0.0095 | – | – | – | – | – | – | –
C=CCC1=C(C)C(OC(=O)[C@@H]2[C@@H](C=C(C)C)C2(C)C)CC1=O (stereo partly drawn) [Bioallethrin] | 5.5 milligrams/filter paper test substrate | 0.058 | 1.46 × 10^−6 grams per liter | 0.085 | 0.0049 | – | – | – | – | – | – | –
CC1(C)C(C=C(Cl)Cl)C1C(=O)OC(C#N)c1ccc(F)c(Oc2ccccc2)c1 (stereo not drawn) [Cyfluthrin] | >1000 milligrams/filter paper test substrate | >10.5 | <7.11 × 10^−9 grams per liter | <0.00041 | – | – | – | – | – | – | – | –
CC(C)=CC1C(C(=O)OC(C#N)c2cccc(Oc3ccccc3)c2)C1(C)C (stereo not drawn) [Cyphenothrin] | ˜1000 milligrams/filter paper test substrate | ˜10.5 | 1.85 × 10^−8 grams per liter | 0.0011 | ˜0.011 | – | – | – | – | – | – | –
COP(=O)(OC)OC=C(Cl)Cl [DDVP] | 40 milligrams/filter paper test substrate | 0.42 | 2.63 × 10^−5 grams per liter | 1.53 | 0.60 | achieved | – | – | – | – | – | –
CCN(CC)C(=O)c1cccc(C)c1 [DEET, N,N-diethyl-meta-toluamide] | 95 milligrams/filter paper test substrate | 1.00 | 1.72 × 10^−5 grams per liter | 1.00 | 1.00 | – | – | – | – | – | – | –
C=CCC1=C(C)C(OC(=O)[C@@H]2[C@@H](C=C(C)C)C2(C)C)CC1=O (stereo partly drawn) [Esbiothrin] | 4.5 milligrams/filter paper test substrate | 0.047 | 5.35 × 10^−6 grams per liter | 0.311 | 0.0146 | achieved | – | – | – | – | – | –
CC1(C)C(C=C(Cl)Cl)C1C(=O)OCc1cccc(Oc2ccccc2)c1 (stereo not drawn) [Permethrin] | >1000 milligrams/filter paper test substrate | >10.5 | 7.11 × 10^−9 grams per liter | 0.00041 | >0.004 | – | – | – | – | – | – | –
C#CCC1=C(C)C(OC(=O)C2C(C=C(C)C)C2(C)C)CC1=O (stereo not drawn) [Prallethrin] | 5.5 milligrams/filter paper test substrate | 0.058 | 5.80 × 10^−7 grams per liter | 0.034 | 0.0020 | achieved | failed to achieve | – | – | – | – | –
CNC(=O)Oc1ccccc1OC(C)C [Propoxur (Baygon), Propoxur] | >120 milligrams/filter paper test substrate | >1.26 | – | – | – | – | – | – | – | – | – | –
CC1(C)[C@H](C=C(Cl)Cl)[C@H]1C(=O)OCc1c(F)c(F)cc(F)c1F [Transfluthrin] | 0.57 milligrams/filter paper test substrate | 0.0059 | 6.09 × 10^−8 grams per liter | 0.0035 | 0.00002 | achieved | 30 min | never achieved | never achieved | never achieved | 20 min | 80 min
C#CC(OC(=O)C1C(C=C(C)C)C1(C)C)/C(C)=C/CC (stereo not drawn) [Vaporthrin] | 5.3 milligrams/filter paper test substrate | 0.058 | 9.75 × 10^−6 grams per liter | 0.567 | 0.033 | achieved | – | – | – | – | – | –
Pentecychlothrin [Pentecychlothrin (Zhong X1)] | 8.1 milligrams/filter paper test substrate | 0.085 | 3.64 × 10^−7 grams per liter | 0.021 | 0.0018 | – | – | – | – | – | – | –

Source: US6582714B1, “Article for insert control by passive evaporation of an active ingredient” (priority 1995, dated 2003)
